According to publication PMC12386606, “Evaluation of the In Vitro Blood–Brain Barrier Transport of Ferula persica L. Bioactive Compounds” (International Journal of Molecular Sciences, 2025):
Read-outs that look alike come from different tables or passages of the source.

How the values were obtained:
[1] = PAMPA
Description: (§1) The permeability of bioactive compounds from AerExt and RootExt across the BBB was assessed using the PAMPA-BBB assay, following the methodology described by [11]. Firstly, the BBB solution was prepared by dissolving 8 mg of PBL and 4 mg of cholesterol in 600 μL of n-dodecane. The initial donor solution was prepared by mixing 1 mL of AerExt or RootExt (at 10 mg mL^−1 in EtOH) with 1 mL of buffer (PBS, pH = 7.4, 10 mM). The filter membrane of the donor plate was coated with 5 μL of BBB solution. The acceptor plate was filled with 350 μL of buffer, and the donor plate was carefully placed on top of the acceptor plate to form a “sandwich-like” assembly. Subsequently, 350 μL of the donor solution was added to the donor plate, which was then covered and incubated at 37 °C for 4 h in the dark. After the incubation time, 300 μL of the solution was collected from each plate, transferred into separate vials, and evaporated using a SpeedVac system at 40 °C under 13 mbar pressure. The dried acceptor and donor solutions were dissolved in 50 μL of pure EtOH before being subjected to HPLC-Q-TOF-MS/MS and GC-Q-TOF-MS analysis. Permeability (Pe) across the PAMPA-BBB of the bioactive compound was calculated according to Equation (1) [54], with modifications in concentration rates.Pe = −ln[1 − CA(t)/Cequilibrium]/(A × (1/VD + 1/VA) × t)(1)
(§2) Cequilibrium was calculated according to Equation (2):Cequilibrium = [CD(t) × VD + CA(t) × VA]/(VD + VA)(2)
(§3) The HPLC-MS and GC-MS chromatograms were processed using the Agilent Mass Hunter Qualitative software (version B.10.0) to verify the retention time and exact mass of the compounds previously reported by us [25] and to extract their peak area to calculate the BBB permeability.

SH-SY5Y cells = experiment: Neuroprotection against H2O2, L-glutamate and Aβ1-42 in differentiated SH-SY5Y cells (MTT); settings: 24 h
Description: To investigate the neuroprotective potential of AerExt or RootExt, oxidative damage (H2O2), excitotoxic stress (L-glutamate), and Aβ1-42 toxicity were induced in cells and evaluated as described by [58]. Briefly, SH-SY5Y cells were plated as described above, and 24 h after cell attachment, cells were pre-treated with non-toxic concentrations of AerExt or RootExt (40 μg mL^−1 for AerExt; 20 μg mL^−1 for RootExt) for 24 h. In the control group, DMEM/F12 cell medium supplemented with 1% FBS, 100 U mL^−1 penicillin, 100 μg mL^−1 streptomycin, 250 ng mL^−1 antimycotic, and 0.4% ethanol was used. The next day, cells were incubated with either cell medium alone (control), H2O2 (65 μM), L-glutamate (23 mM), or Aβ1-42 (30 μM) for 24 h. Cell viability was assessed by MTT assay at the end of the experiments. All the experiments were repeated three times, and a T-test was applied between the treated and control conditions considering statistically significant differences when p < 0.05.

[2] = oil/water partition coefficient; Table 1; ref PubChem; cited from earlier work
HBMEC cells = experiment: Blood–brain barrier transport study in HBMEC Transwell monolayer; settings: for crossing of the HBMEC-BBB: AerExt 40 µg mL^−1 / RootExt 20 µg mL^−1, 2, 4, 24 h; for AerExt Te (%) ± SD 2 h / AerExt Te (%) ± SD 4 h / AerExt Te (%) ± SD 24 h: AerExt 40 µg mL^−1 apical; for AerExt Te (%) ± SD 2 h / AerExt Te (%) ± SD 4 h / AerExt Te (%) ± SD 24 h / RootExt Te (%) ± SD 2 h / RootExt Te (%) ± SD 4 h / RootExt Te (%) ± SD 24 h: n.q. = not quantified in the basolateral compartment; for RootExt Te (%) ± SD 2 h / RootExt Te (%) ± SD 4 h / RootExt Te (%) ± SD 24 h: RootExt 20 µg mL^−1 apical
Description: After the toxicity evaluation, the HBMEC cell line was also used as a simplified in vitro model of the BBB endothelium. Cells were seeded at a density of 1.6 × 10^5 cells/cm^2 in 12-well Transwell® plates (Corning Costar Corp., Corning, USA) with a pore diameter of 0.4 μm, pre-coated with type I rat tail collagen (100 μg mL^−1) [55]. The culture medium was renewed every 2 days until a monolayer cell structure was formed (see Supplementary Figure S2), and transport experiments were initiated after 10 days. In transport experiments, the medium in the apical (upper) compartment of the Transwell system was removed, and 0.5 mL of AerExt or RootExt at a concentration of 40 μg mL^−1 and 20 μg mL^−1, respectively, was added to these compartments (applied in duplicate). Also, a medium containing 0.4% (v/v) ethanol was used as control group. The basolateral (lower) compartments were filled with 1.5 mL of fresh culture medium. The cells were incubated under these conditions for 2, 4, and 24 h.
At the end of the incubation periods, media samples were collected from both chambers and lyophilized using a freeze-drying system from Martin Christ (Osterode am Harz, Germany). The samples were stored at −80 °C until analysis. The collected samples were subjected to chemical analyses to evaluate the ability of bioactive compounds contained in the extracts to pass through the cell monolayer.
The transport efficiency (Te) of bioactive substances was calculated based on Equation (3), described by [56]:Te (%) = CLower/CUpper × 100(3)
This calculation was performed to understand whether the compound crosses the cell layer and how efficiently it is transported.
For this purpose, 0.2 mL of cold water (H2O) was added to the samples, and the samples were vortexed for 10 s. Then, 0.8 mL of cold methanol was added and vortexed again for 10 s. Then, the mixture was centrifuged at 14,000 rpm for 5 min, and the supernatant was carefully transferred to a 1.5 mL Eppendorf tube and dried in a SpeedVac device at 40 °C and 13 bar pressure. Finally, the dried samples were resuspended in 25 μL of pure ethanol for their subsequent analysis.
For HPLC-Q-TOF MS/MS analysis, aliquots of 2 μL were injected into an HPLC model 1290 coupled to a Q-TOF series 6540 (Agilent Technologies, Waldbronn, Germany). For GC-Q-TOF MS analysis, aliquots of 1 μL were injected with a split ratio of 1:10 into a GC model 7890B coupled to a Q-TOF series 7200 (Agilent Technologies, Waldbronn, Germany). The HPLC-MS and GC-MS chromatograms were processed using the Agilent Mass Hunter Qualitative software (version B.10.0) to verify the retention time and exact mass of the compounds previously reported by us [25] and to extract their peak area to calculate the BBB permeability.

[3] = Parallel artificial membrane permeability assay for the blood–brain barrier (PAMPA-BBB); settings: for RootExt log Pe: compound within RootExt donor solution; for RootExt log Pe / AerExt log Pe: 37 °C, 4 h, PBS pH 7.4, n.q. = not quantified in the acceptor plate; for AerExt log Pe: compound within AerExt donor solution
Description: as §1, §2, §3

COc1c(O)cc2oc(-c3ccc(O[C@@H]4O[C@H](CO)[C@@H](O)[C@H](O)[C@H]4O)cc3)cc(=O)c2c1O [Hispidulin 4′-glucoside]
AerExt Cross BBB Potential [1]: + (key: –: not quantified in acceptor; +: log Pe < −6.5; ++: −6.5 < log Pe < −5.5; +++: −5.5 < log Pe < −4.5)
AerExt log Pe ([1]; pH 7.4): −6.14

OO [H2O2]
cell viability after neurotoxic agent, compared with control (SH-SY5Y cells; H2O2 65 µM): 48%

O=c1cc(-c2ccc(O)cc2)oc2cc(O[C@@H]3O[C@H](CO)[C@@H](O)[C@H](O)[C@H]3O)cc(O)c12 [Apigenin 7-glucoside]
log p [2]: −0.1
crossing of the HBMEC-BBB (HBMEC cells): could not cross the HBMEC-BBB
AerExt Te (%) ± SD 2 h (HBMEC cells): n.q.
AerExt Te (%) ± SD 4 h (HBMEC cells): n.q.
AerExt Cross BBB Potential ([3]; compound within AerExt, PAMPA-BBB): + (log Pe < −6.5)
RootExt log Pe [3]: n.q.

COc1ccc([C@@H]2CC(=O)c3c(O)cc(O[C@@H]4O[C@H](CO[C@@H]5O[C@@H](C)[C@H](O)[C@@H](O)[C@H]5O)[C@@H](O)[C@H](O)[C@H]4O)cc3O2)cc1O [Hesperidin]
log p [2]: −1.1
AerExt Te (%) ± SD 2 h (HBMEC cells): n.q.
AerExt Te (%) ± SD 4 h (HBMEC cells): n.q.
AerExt Te (%) ± SD 24 h (HBMEC cells): n.q.
RootExt Te (%) ± SD 2 h (HBMEC cells): n.q.
RootExt Te (%) ± SD 4 h (HBMEC cells): n.q.
RootExt Te (%) ± SD 24 h (HBMEC cells): n.q.
AerExt log Pe [3]: n.q.
RootExt log Pe [3]: n.q.

Cc1nccc2c1[nH]c1ccccc12 [Harman]
AerExt Cross BBB Potential [1]: ++ (key: –: not quantified in acceptor; +: log Pe < −6.5; ++: −6.5 < log Pe < −5.5; +++: −5.5 < log Pe < −4.5)
log p [2]: 3.6

N[C@@H](CCC(=O)O)C(=O)O [L-glutamate]
viability at 23000 µM (SH-SY5Y cells; Homo sapiens, read-out: cell viability after neurotoxic agent, compared with control): 47%

Oc1ccc(O)c(O)c1 [1,2,4-benzenetriol]
log p [2]: 1.5
crossing of the HBMEC-BBB (HBMEC cells): could not cross the HBMEC-BBB
RootExt Te (%) ± SD 2 h (HBMEC cells): n.q.
RootExt Te (%) ± SD 4 h (HBMEC cells): n.q.
RootExt Te (%) ± SD 24 h (HBMEC cells): n.q.
AerExt log Pe [3]: n.q.

C/C=C\c1cc(OC)c(OC)cc1OC [β-asarone]
log p [2]: 3.0
AerExt Te (%) ± SD 2 h (HBMEC cells): 7.5 ± 2.0%
AerExt Te (%) ± SD 4 h (HBMEC cells): 15.0 ± 7.3%
AerExt Te (%) ± SD 24 h (HBMEC cells): 15.5 ± 1.0%
RootExt log Pe [3]: n.q.

COc1ccc(-c2cc(=O)c3c(OC)c(OC)c(OC)c(OC)c3o2)cc1OC [Nobiletin]
log p [2]: 3.0
crossing of the HBMEC-BBB (HBMEC cells): could not cross the HBMEC-BBB
AerExt Te (%) ± SD 2 h (HBMEC cells): n.q.
AerExt Te (%) ± SD 4 h (HBMEC cells): n.q.
AerExt Te (%) ± SD 24 h (HBMEC cells): n.q.
RootExt Te (%) ± SD 2 h (HBMEC cells): n.q.
RootExt Te (%) ± SD 4 h (HBMEC cells): n.q.
RootExt Te (%) ± SD 24 h (HBMEC cells): n.q.
Papp at 4 h ([3]; PAMPA, pH 7.4): 49 ×10⁻⁶ cm/s

O=C(O)C=Cc1cc(O)ccc1O [2,5-dihydroxycinnamic acid]
log p [2]: 1.2
crossing of the HBMEC-BBB (HBMEC cells): could not cross the HBMEC-BBB
RootExt Te (%) ± SD 2 h (HBMEC cells): n.q.
RootExt Te (%) ± SD 4 h (HBMEC cells): n.q.
RootExt Te (%) ± SD 24 h (HBMEC cells): n.q.
AerExt log Pe [3]: −5.68
RootExt log Pe [3]: −5.22
